In US20230285411A1, “DRUG FORMULATION CONTAINING SEPETAPROST” (SANTEN PHARMACEUTICAL CO., LTD., priority 2020, published 2023):

Legend:
Assay type in all cases: in vivo, cynomolgus monkey
[1] = test system: monkeys with an inadequate response to latanoprost; assay: Test for effect of latanoprost on lowering intraocular pressure in monkeys with inadequate response to latanoprost; settings: for intraocular pressure change value: 20 μL/eye once
Procedure: Latanoprost eye drop was administered to the monkeys with an inadequate response to latanoprost, and its effect on lowering the intraocular pressure at 10 and 12 hours after the administration was evaluated.
(§1) (Eye Drop) • Latanoprost eye drop: Xalatan® Eye Drops 0.005% (w/v) (Pfizer Japan Inc.)
(§2) (Test Animals) • Cynomolgus monkeys: 7 animals (sex: male) selected in “1. Selection of monkeys with inadequate response to latanoprost”
(§3) <Methods for Administration and Measurement> • (1) An intraocular pressure was measured immediately before administering the test eye drop and was defined as the pre-administration intraocular pressure value (0 hour). • (2) The test eye drop was administered once (20 μL/eye) to one eye (right eye) of the test animals using a PIPETMAN. The contralateral eye was untreated. • (3) An intraocular pressure was measured at 10 and 12 hours after the administration. The intraocular pressure was measured three times for each to calculate its average value. An intraocular pressure change value (mmHg) was calculated as the difference from the pre-administration intraocular pressure value (0 hour) at each measurement time point.

[2] = test system: cynomolgus monkeys (monkeys with normal intraocular pressure), selected monkeys with an inadequate response to latanoprost; assay: Selection of monkeys with inadequate response to latanoprost: intraocular pressure after single latanoprost eye drop; settings: for intraocular pressure change value: 0.005% (w/v) eye drop, 20 μL/eye once, 7 selected monkeys
Procedure: 1. Selection of monkeys with inadequate response to latanoprost Latanoprost eye drop was administered to cynomolgus monkeys (monkeys with normal intraocular pressure) and each individual animal was examined for responsiveness to latanoprost to select monkeys with an inadequate response to latanoprost.
as §1
(Test Animals) • Cynomolgus monkeys: 32 animals (Sex/male)
as §3, with “2, 4,” for “10”, “6” for “12”
The test was conducted as a crossover study. A physiological saline solution was administered as a test eye drop to a control group. Two series of administering the latanoprost eye drop were conducted and designated as a latanoprost (first time) group and a latanoprost (second time) group, respectively.

[3] = test system: monkeys with an inadequate response to latanoprost; assay: Test for effect of sepetaprost on lowering intraocular pressure in monkeys with inadequate response to latanoprost; settings: for intraocular pressure lowering action: 10 and 12 hours after the administration, in words; for intraocular pressure lowering width / intraocular pressure change value: 0.002% (w/v) eye drop; for intraocular pressure change value: 20 μL/eye once
Procedure: Sepetaprost eye drop was administered to monkeys with an inadequate response to latanoprost, and its effect on lowering the intraocular pressure at 10 and 12 hours after the administration was evaluated.
(Eye Drop) • Sepetaprost eye drop: Sepetaprost was dissolved in a base, and then, a sepetaprost eye drop with a concentration of 0.002% (w/v) was prepared by using a commonly used method.
as §2
as §3, with “[…].” for “PIPETMAN.”
The test was conducted as a crossover study. The above-mentioned base was administered as a test eye drop to a control group. Two series of administering the sepetaprost eye drop were conducted and designated as a sepetaprost (first time) group and a sepetaprost (second time) group, respectively.

[4] = 12 hours after administration, 0.005% (w/v) eye drop
[5] = first time group, 10 hours after administration
[6] = first time group, 12 hours after administration
[7] = second time group, 10 hours after administration
[8] = second time group, 12 hours after administration

SMILES: CC(C)OC(=O)CCC/C=C\C[C@@H]1[C@@H](CC[C@@H](O)CCc2ccccc2)[C@H](O)C[C@@H]1O [Latanoprost, latanoprost]
- intraocular pressure change value ([1]; 10 hours after administration, 0.005% (w/v) eye drop): −0.5 mmHg
- intraocular pressure lowering width [1, 4]: 1.2 mmHg
- intraocular pressure change value [1, 4]: −1.2 mmHg
- intraocular pressure lowering effect ([1]; up to 12 hours after the administration, in words): inadequate
- change over time in the intraocular pressure ([2]; first time and second time groups, up to 6 hours after the administration, in words): little change over time
- intraocular pressure change value ([2]; first time group, 2 hours after administration): 1.0 mmHg
- intraocular pressure change value ([2]; first time group, 4 hours after administration): −0.2 mmHg
- intraocular pressure change value ([2]; first time group, 6 hours after administration): −0.6 mmHg
- intraocular pressure change value ([2]; second time group, 2 hours after administration): 0.4 mmHg
- intraocular pressure change value ([2]; second time group, 4 hours after administration): 0.0 mmHg
- intraocular pressure change value ([2]; second time group, 6 hours after administration): −0.1 mmHg

SMILES: CC(C)OC(=O)CCC[C@H]1CC[C@@H]2[C@@H](/C=C/[C@@H](O)COc3cc(F)ccc3F)[C@H](O)C[C@@H]2OC1 [Sepetaprost, 2-propanyl 4-{(3S,5aR,6R,7R,8aS)-6-[(1E,3R)-4-(2,5-difluorophenoxy)-3-hydroxy-1-buten-1-yl]-7-hydroxyoctahydro-2H-cyclopenta[b]oxepin-3-yl}butanoate]
- intraocular pressure lowering action [3]: adequate
- intraocular pressure lowering action ([3]; listed as sepetaprost eye drop): significant
- intraocular pressure lowering width [3, 5]: 3.1 mmHg
- intraocular pressure change value [3, 5]: −3.1 mmHg
- intraocular pressure lowering width [3, 6]: 3.3 mmHg
- intraocular pressure change value [3, 6]: −3.3 mmHg
- intraocular pressure lowering width [3, 7]: 2.6 mmHg
- intraocular pressure change value [3, 7]: −2.6 mmHg
- intraocular pressure lowering width [3, 8]: 3.4 mmHg
- intraocular pressure change value [3, 8]: −3.4 mmHg
